Assay results taken from patent US8084219B2, “Methods for detecting and analyzing N-glycolylneuraminic acid (Neu5Gc) in biological materials” (The Regents of the University of California, priority 2003, dated 2011).

Legend:
[1] = tested on: anti-Neu5Gc antibodies in human sera; test: Inhibition of human serum anti-Neu5Gc antibody ELISA reactivity to Neu5Gc-PAA; assay type: binding; details: free sugar at 2 mM
Description: Detection of Anti-Neu5Gc and anti-α-Gal specific antibodies in human sera—Microtiter (Costar, Corning, N.Y.) plate wells were coated with Neu5Ac-polyacrylamide(PAA), Neu5Gc-PAA, or Galα1-3GalBeta1-4GlcNAc-PAA (Glycotech, Rockville, Md.) at a concentration of 500 ng/well, in 50 mM sodium carbonate-bicarbonate buffer pH 9.5, at 4° C. overnight. After washing with TBS, pH 7.5 and blocking with TBST for 2 h at RT, triplicate wells were incubated with 1:50 dilutions of serum in TBST at RT for 4 h. Wells were washed 5 times with TBS, and incubated with HRP-conjugated mouse anti-human IgA (Calbiochem, San Diego, Calif.), anti-human IgG (Jackson ImmunoResearch, West Grove, Pa.) or anti-human IgM (KPL, Gaithersburg, Md.) each diluted in TBST at 1:20,000, at RT for 1.5 hour. The IgG anti-Neu5Gc and anti-α-Gal antibodies were quantitated using a standard curve of normal human IgG coated to the wells under the same general conditions.
Anti-Neu5Gc antibodies of the IgA, IgM and IgG classes were detected in the sera of all three subjects who ingested Neu5Gc at baseline, but no increases occurred after Neu5Gc ingestion (not shown). […] Specificity was confirmed by showing that anti-Neu5Gc reactivity was blocked by chimpanzee serum in a concentration-dependent manner, but not by equivalent amounts of a Neu5Gc antibody-negative human serum (FIG. 4B). […]

[2] = tested on: Caco-2 cells; test: Feeding of human epithelial cells with Neu5Gc; assay type: cell-based; details: Caco-2, 3 mM Neu5Gc for 3 days, HPLC
Description: Feeding of Human Epithelial Cells with Neu5Gc—Caco-2 cells (human epithelial cells isolated from a primary colon carcinoma, ATCC, Manassas, Va.), were propagated in α-MEM (Gibco, Invitrogen Corporation, San Diego, Calif.) supplemented with 20% heat inactivated Fetal Calf Serum, at 37° C., 5% CO2. Prior to feeding, the cells were split and cultured for 4 days in α-MEM supplemented with 20% heat inactivated premium human serum type AB (Irvine scientific, Santa Ana, Calif.). Cells were then cultured in the presence of various concentrations of free Neu5Gc (0, 0.3, 1 and 3 mM, respectively) for 3 days at 37° C. Cells were then washed with cold PBS, scraped into 20 mM sodium phosphate pH 7.5 and sonicated. The protein extract was quantified and analysed by Western blot using the anti-Neu5Gc antibody.
Although human cells cultured in fetal calf serum express cell surface Neu5Gc in small amounts (Muchmore, et al., supra, and Oetke, et al., supra), this could represent either metabolic incorporation or non-specific absorption. Human epithelial cells were cultured in human serum until no traces of Neu5Gc derived from fetal calf serum could be detected by HPLC (typically ˜4 days). Culture was then continued for 3 days in the absence or presence of varying amounts of free Neu5Gc. […]

[3] = Human Neu5Gc ingestion study; assay type: in vivo
Description: Human Neu5Gc Ingestion Study—Human subjects were enlisted in the study, and were told to avoid animal foods for 2 days, all medications for 1 day, use a lanolin-free (Neu5Gc-free) shampoo for 2 days, and ingest only fruit juice on the morning of study. Subjects then drank 150 mg of porcine submaxillary mucin Sias (see above) dissolved in 100 ml water. For the next 6 h they drank a 1:1 mixture of fruit juice and soymilk (Sia free) at ˜2 ml/Kg/hr. Serum, urine and saliva samples were obtained at multiple time points. Human saliva was collected by chewing parafilm, after washing the mouth out well with water. Urine volume and pH were recorded prior to centrifugation at 1000 g for 10 min, and collection of the supernatant. All samples were stored frozen at −20° C. Head hairs (˜20) and/or facial hair trimmings (from men) were collected prior to, and on several days after Neu5Gc ingestion.
Purification and analysis of Sialic Acids and N-acylmannosamines from Human Samples—Human salivary mucin was precipitated by adjusting to pH 3 with 100 mM acetic acid, stirring at 4° C. overnight, collected at 14,000 g for 10 min, and washed twice with 1 ml of ice-cold PBS. Human hair clippings were washed in 100 mM ice-cold acetic acid for two h and crushed in a clean ceramic mortar. Bound Sias from saliva, hair or serum were released with mild acid as above, filtered through Microcon 10 filters (Millipore, Bedford, Mass.), dried down, reconstituted in water and analyzed for Sia content by DMB-HPLC.
Five ml urine aliquots were diluted 5-fold and loaded onto 10 ml columns of AG50W-X2 resin (H^+ form, BioRad, Richmond, Calif.) equilibrated in water. The run-through and washes (2×10 ml of water) were pooled and loaded onto 10 ml columns of AG1X8 resin (Formate form, BioRad) equilibrated in water. The combined run-through and washes (2×10 ml of water) were lyophilized. After washing with 5 volumes of 10 mM formic acid, free Sias were eluted with 5 volumes of 1M formic acid, diluted two-fold with water, and lyophilized.
Free Sias were purified from urine samples, and analyzed for Neu5Gc content by DMB-HPLC. Since overlapping fluorescent peaks prevented definitive identification and quantification, HPLC fractions eluting at the time expected for DMB-Neu5Gc were collected and subjected to MS, confirming an increase in ion peaks at m/z 424 and m/z 442. The sum of ion intensities of m/z 424 and m/z 442 at each time point provided an estimate of Neu5Gc quantity. Ingested Neu5Gc was rapidly absorbed and excreted into the urine (FIG. 3A). About 3-6% of the ingested dose was excreted within 4-6 h, with the peak excretion rate at 2-3 h and a return to baseline levels within 24 h.

[4] = tested on: human cells; test: Human cells fed with free Neu5Gc, incorporation into endogenous glycoproteins; assay type: cell-based
From the text: It is therefore reasoned that the Neu5Gc in normal humans originates from exogenous sources. […] Likewise, human cells cultured in FCS incorporated Neu5Gc from the serum glycoproteins into the native glycoconjugates of the cells (Muchmore, E. A., Diaz, S, and Varki, A. (1998). Am J Phys Anthropol 107:187-198; and Tangvoranuntakul, et al., supra.

CC(=O)N[C@H]1[C@H]([C@H](O)[C@H](O)CO)OC(O)(C(=O)O)C[C@@H]1O (some centres unmarked) [Neu5Ac, N-acetylneuraminic acid, reference compound]
inhibition of anti-Neu5Gc reactivity of human sera [1]: not

O=C(CO)N[C@H]1[C@H]([C@H](O)[C@H](O)CO)OC(O)(C(=O)O)C[C@@H]1O (some centres unmarked) [Neu5Gc, N-glycolylneuraminic acid]
highest level of incorporation of Neu5Gc into the cells, of total Sia [2]: 85%
subjects with increase of Neu5Gc in salivary mucins ([3]; 2 days after ingestion, MS): 2 of 3
time of decline of salivary mucin Neu5Gc to baseline levels ([3]; after ingestion): ≤ 4 days
Neu5Gc in serum samples ([3]; any time points after ingestion): not detected
time of peak urinary excretion rate ([3]; oral 150 mg): 2 to 3 h
time of return of urinary excretion to baseline levels ([3]; oral 150 mg): ≤ 24 h
reactions to Neu5Gc ingestion ([3]; oral 150 mg, human subjects): no immediate reactions
share of the ingested dose excreted into the urine ([3]; within 4-6 h after oral 150 mg porcine submaxillary mucin Sias, MS estimate): 3-6%
inhibition of anti-Neu5Gc reactivity of human sera [1]: > 70%
level of Neu5Gc incorporated into endogenous glycoproteins [4]: > 50%
